pKi: −log10 of the molar value.
Assays:
[1] = target: 3H-oxotremorine-M binding (muscarinic receptors); test: 3H-oxotremorine-M binding inhibition; details: radioligand 3H-oxotremorine-M; read-out: inhibition constant (Ki) for binding of 3H-oxotremorine-M
[2] = test system: m4 receptors; test: cAMP formation in CHO m4 cells treated with pertussis toxin; assay type: cell-based
Source text: Muscarinic agonists stimulate the formation of cAMP up to 10 fold in CHO m4 cells treated with pertussisi toxin and the pharmacology is consistent with the mediation by m4 receptors. Eckols K. Soc. Neurosci Abstr., 21:2040 (1995).

[3] = test system: D2 receptor subtype; test: pharmacological studies at the D2 receptor subtype

## CCCCCCOc1nsnc1C1=CCCN(C)C1 [xanomeline, 3-(4-hexyloxy-1,2,5-thiadiazol-3-yl)-1,2,5,6-tetrahydro-1-methylpyridine]
[1]
  pKi: 8.70
[2]
  stimulation of the formation of cAMP: efficaciously and potently stimulated the formation of cAMP
[3]
  activity at the D2 receptor subtype: active

— patent US6090829A, “Method for treating excessive aggression” (Eli Lilly and Company, priority 1998, dated 2000)
